# Results from US4463009A, “Dialkyl 1-(2-pyridinylthio)-1,2-hydrazinedicarboxylate, N-oxides and their use as animal growth stimulants” (priority 1983, dated 1984).
# Legend:
# Staph. aureus = assay: chemotherapeutic activity, m.i.c. against Staph. aureus; format: cell-based; conditions: Staphylococcus aureus
# E. coli = assay: chemotherapeutic activity, m.i.c. against E. coli; format: cell-based; conditions: Escherichia coli
# C. albicans = assay: chemotherapeutic activity, m.i.c. against C. albicans; format: cell-based; conditions: Candida albicans
# Strep. faecalis = assay: chemotherapeutic activity, m.i.c. against Strep. faecalis; format: cell-based; conditions: Enterococcus faecalis
# broiler chicks = assay: Chick Growth Study; format: in vivo, chicken; conditions: 8 reps (8/rep)
# Method: One day old broiler chicks, selected for weight, health and sex, are housed in an environmentally controlled room with temperature at 80° F. and humidity at 40%. Chicks are fed ad libitum. Water is offered ad libitum. A rye or corn basal ration is fed during the acclimation period (days 1 and 2), then, mixed with the compound under test or control conditions on days 3-17. Either 8 pens (64 chicks) or 16 pens (128 chicks) are used for each test or control group.
# B. Representative results using diethyl 1-(2-pyridinylthio)-1,2-hydrazinedicarboxylate, N-oxide: […]
# [1] = system: Ileal inoculum (filtrate) of Yorkshire barrow; assay: in vitro incubation with inoculum from cannulated swine (ileal); format: cell-based; conditions: 5 hours at 37°
# Method: A Yorkshire barrow is surgically prepared either with an ileal cannula, which is placed 15 cm. from the ileo-ceco-colic junction, or a cecal cannula, which placed midway between the apex and origin of the cecum. The animal is fed 4 times daily to restrict intake to 4.5% of body weight in a 30 kg animal or 2.5% of body weight in a 100 kg animal. The swine grower ration is:
# Sampling of the material, via the cannula, begins 150-180 minutes following the first morning feeding and continues any time from 30-120 minutes thereafter, depending on the quantity of material needed. The sample is maintained in crushed ice, no cooler than 5°, and is gassed continuously with carbon dioxide. The collected material is filtered. The filtrate is the inoculum used for incubations of the test and control samples. […] Four blank control tubes, along with the test compound tubes, are incubated 5 hours at 37° with agitation. Four more killed tubes are included which are not incubated.
# The tubes are each treated with 0.60 ml of a 25% solution of metaphosphoric acid, then, stored at -4° until analysis. Samples are thawed and centrifuged for 25 minutes at 20,000 r.p.m. The supernatent liquid is decanted, sampled for gas chromatography and automatic analysis. The results are fed into a computer for finishing to give figures in which the blank control value is 100%. Virginiamycin is used as a positive control.
# *VFA refers to the total of volatile fatty acids, namely acetate,
# propionate, isobutyrate, butyrate, isovalerate and valerate. LYS is
# lysine, GLU is glucose and LAC is Llactic acid.
# [2] = (3) positive control, 166.67 ppm
molecule,measurement,setting,value
"CCOC(=O)NN(Sc1cccc[n+]1[O-])C(=O)OCC [diethyl 1-(2-pyridinylthio)-1,2-hydrazinedicarboxylate, N-oxide]",MIC,Staph. aureus,2 mg/L
same,MIC,E. coli,63 mg/L
same,MIC,C. albicans,63 mg/L
same,MIC,Strep. faecalis,3 mg/L
same,"Weight, 17 day",broiler chicks; trial (1),102.0 % of Control
same,Dead,"broiler chicks; trial (1), 20 ppm in feed",1
same,"Feed/Gain, days 3-10","broiler chicks; trial (1), 20 ppm in feed",102.2 % of Control
same,"Feed/Gain, days 3-17","broiler chicks; trial (1), 20 ppm in feed",101.7 % of Control
same,"Feed/Gain, days 10-17","broiler chicks; trial (1), 20 ppm in feed",101.7 % of Control
same,"Weight, 10 day","broiler chicks; trial (1), 20 ppm in feed",96.4 % of Control
same,"Weight, 17 day","broiler chicks; trial (1), 20 ppm in feed",103.2 % of Control
same,Dead,"broiler chicks; trial (1), 40 ppm in feed",4
same,"Feed/Gain, days 3-10","broiler chicks; trial (1), 40 ppm in feed",103.3 % of Control
same,"Feed/Gain, days 3-17","broiler chicks; trial (1), 40 ppm in feed",98.4 % of Control
same,"Feed/Gain, days 10-17","broiler chicks; trial (1), 40 ppm in feed",95.0 % of Control
same,"Weight, 10 day","broiler chicks; trial (1), 40 ppm in feed",90.9 % of Control
same,Dead,"broiler chicks; trial (2), 20 ppm in feed",4
same,"Feed/Gain, days 3-10","broiler chicks; trial (2), 20 ppm in feed",96.8 % of Control
same,"Feed/Gain, days 3-17","broiler chicks; trial (2), 20 ppm in feed",96.4 % of Control
same,"Feed/Gain, days 10-17","broiler chicks; trial (2), 20 ppm in feed",96.5 % of Control
same,"Weight, 10 day","broiler chicks; trial (2), 20 ppm in feed",103.5 % of Control
same,"Weight, 17 day","broiler chicks; trial (2), 20 ppm in feed",103.4 % of Control
same,Dead,"broiler chicks; trial (3), 50 ppm in feed",0
same,"Feed/Gain, days 3-10","broiler chicks; trial (3), 50 ppm in feed",97.1 % of Control
same,"Feed/Gain, days 3-17","broiler chicks; trial (3), 50 ppm in feed",93.6 % of Control
same,"Feed/Gain, days 10-17","broiler chicks; trial (3), 50 ppm in feed",85.2 % of Control
same,"Weight, 10 day","broiler chicks; trial (3), 50 ppm in feed",93.2 % of Control
same,"Weight, 17 day","broiler chicks; trial (3), 50 ppm in feed",102.8 % of Control
same,GLU (glucose),"[1]; (1), 1.67 ppm",166 % of control values
same,LAC (L-lactic acid),"[1]; (1), 1.67 ppm",91 % of control values
same,LYS (lysine),"[1]; (1), 1.67 ppm",109 % of control values
same,VFA (total volatile fatty acids),"[1]; (1), 1.67 ppm",91 % of control values
same,GLU (glucose),"[1]; (1), 16.67 ppm",237 % of control values
same,LAC (L-lactic acid),"[1]; (1), 16.67 ppm",81 % of control values
same,LYS (lysine),"[1]; (1), 16.67 ppm",152 % of control values
same,VFA (total volatile fatty acids),"[1]; (1), 16.67 ppm",72 % of control values
same,GLU (glucose),"[1]; (1), 166.7 ppm",379 % of control values
same,LAC (L-lactic acid),"[1]; (1), 166.7 ppm",54 % of control values
same,LYS (lysine),"[1]; (1), 166.7 ppm",194 % of control values
same,VFA (total volatile fatty acids),"[1]; (1), 166.7 ppm",47 % of control values
same,GLU (glucose),"[1]; (2), 166.67 ppm",845 % of control values
same,LAC (L-lactic acid),"[1]; (2), 166.67 ppm",139 % of control values
same,LYS (lysine),"[1]; (2), 166.67 ppm",110 % of control values
same,VFA (total volatile fatty acids),"[1]; (2), 166.67 ppm",55 % of control values
virginiamycin [reference compound],GLU (glucose),"[1]; (3) positive control, 1.67 ppm",393 % of control values
same,LAC (L-lactic acid),"[1]; (3) positive control, 1.67 ppm",0 % of control values
same,LYS (lysine),"[1]; (3) positive control, 1.67 ppm",99 % of control values
same,VFA (total volatile fatty acids),"[1]; (3) positive control, 1.67 ppm",255 % of control values
same,GLU (glucose),"[1]; (3) positive control, 16.7 ppm",464 % of control values
same,LAC (L-lactic acid),"[1]; (3) positive control, 16.7 ppm",12 % of control values
same,LYS (lysine),"[1]; (3) positive control, 16.7 ppm",141 % of control values
same,VFA (total volatile fatty acids),"[1]; (3) positive control, 16.7 ppm",114 % of control values
same,GLU (glucose),[1]; [2],496 % of control values
same,LAC (L-lactic acid),[1]; [2],14 % of control values
same,LYS (lysine),[1]; [2],144 % of control values
same,VFA (total volatile fatty acids),[1]; [2],86 % of control values
